Test system: diet-induced obese mice
Assay: Test Example 2: diet-induced obese mice on low-calorie feed with RHP, caffeine or their mixture, body weight, calorie intake, epididymal fat
Format: in vivo, KK mice
Experimental: Mice were fed with a high-calorie feed for the preparation of diet-induced obese mice. The calorie intake of the diet-induced obese mice was restricted so as to induce a state of facilitated resolution and utilization of body fat, and then the composition of the present invention containing a rose hip extract and caffeine was given to the mice. In this way, examination was conducted to determine whether the composition could facilitate the resolution and utilization of body fat and thereby ameliorate obesity. Five-week-old male KK mice were fed with water and the powder feed for breeding for three days, and then fed with the high-calorie feed for 3 weeks for the preparation of diet-induced obese mice. The diet-induced obese mice were divided into three groups (six mice per group) and fed with the feed (1) to (3) shown below for 2 weeks. The feeds given to the test groups are as follows. […] After the end of the test, the mice were euthanized, and epididymal fat tissue was harvested and weighed. […] The results are shown as the mean±SD of each group. Diet-induced obese mice were divided into four groups (six mice per group) and fed with the feed (4) to (7) shown below. Other test conditions were the same as in Test Example 1. The results in Table 3 were statistically analyzed by Dunnett's multiple comparison test. The symbol ** indicates a significant difference with a risk less than 1% from the control group.

Cn1c(=O)c2c(ncn2C)n(C)c1=O [caffeine]
reduction in weight of epididymal fat tissue as compared with the control group (0.025 mass % caffeine in low-calorie feed): 9.2% | statistical significance of fat-reducing effect vs control (0.025 mass % caffeine in low-calorie feed, Dunnett's test): none of them showed any statistically significant fat-reducing effect | Body weight (low-calorie feed + 0.025 mass % caffeine, 2 weeks, last day of test, mean±SD): 35.2 ± 1.8 g | Epididymal fat weight (low-calorie feed + 0.025 mass % caffeine, 2 weeks, mean±SD): 1.60 ± 0.19 g/100 g body weight

From US9669063B2, “Composition for prevention, amelioration or treatment of metabolic syndrome” (MORISHITA JINTAN CO., LTD., priority 2012, dated 2017)
